A short description of one data set: in vitro. The note with it: HCV GT1b CC50 (uM).
Data set [1] relates to GT1b HCV luciferase replicon. As to the kind of experiment: HCV replicon antiviral EC50 assay. The data set is classed as cell-based, Hepatitis C virus. The note with it: for pEC50: read-out: HCV GT1b EC50; for EC50: Hepatitis C virus, GT1B, 72 h, read-out: HCV GT1b EC50 (uM). Background: In antiviral work, replicon cells carry a viral genome segment that copies itself.

pEC50: −log10 of the molar value. Where two headings read alike, the source gives them in different places. Bounds are passed on as bounds.

What is called pEC50 is the EC50 on a negative log10 scale, so that one unit is a factor of ten. In “in vitro”, `C#C[C@@]1(O)[C@H](O)[C@@H](COP(=O)(N[C@@H](Cc2ccccc2)C(=O)OC(C)C)Oc2ccccc2)O[C@H]1n1ccc(=O)[nH]c1=O` (single isomer, unassigned) [1.10 (peak 2)] gave a CC50 of more than 25 µM. Besides, the pEC50 in data set [1] was 7.64.

By EC50 is commonly meant the midpoint of the concentration-response curve. `C#C[C@@]1(O)[C@H](O)[C@@H](COP(=O)(N[C@@H](C)C(=O)OC2CCC2)Oc2ccccc2)O[C@H]1n1ccc(=O)[nH]c1=O` (single isomer, unassigned) [1.11 (peak 2)] yielded a CC50 in “in vitro” of more than 25 µM. In addition, the EC50 in data set [1] amounted to 0.058 µM.

`C#C[C@@]1(O)[C@H](O)[C@@H](COP(=O)(N[C@@H](C)C(=O)O[C@@H](C)CC)Oc2ccccc2)O[C@H]1n1ccc(=O)[nH]c1=O` (single isomer, unassigned) [1.13 (peak 2)] yielded a CC50 in the data set “in vitro” of more than 25 µM. For the same molecule, the pEC50 in data set [1] was 7.60.

Molecule `C#C[C@@]1(O)[C@H](O)[C@@H](COP(=O)(N[C@@H](C)C(=O)OC2CCOCC2)Oc2ccccc2)O[C@H]1n1ccc(=O)[nH]c1=O` (single isomer, unassigned) [1.14 (peak 2)] yielded a CC50 in the data set “in vitro” of more than 25 µM. Also, the negative-log EC50 (pEC50) in data set [1] was 6.34.

Regarding `C#C[C@@]1(O)[C@H](O)[C@@H](COP(=O)(N[C@@H](C)C(=O)O[C@H](C)CC)Oc2ccccc2)O[C@H]1n1ccc(=O)[nH]c1=O` (single isomer, unassigned) [1.15 (peak 2)], the CC50 in the data set “in vitro” was more than 25 µM. Moreover, in data set [1], the negative logarithm of the EC50 (pEC50) is 7.54.

Consider `C#C[C@@]1(O)[C@H](O)[C@@H](COP(=O)(N[C@@H](C)C(=O)OC(CC)CC)Oc2ccccc2)O[C@H]1n1ccc(=O)[nH]c1=O` (single isomer, unassigned) [1.16 (peak 2)], for which, in the data set “in vitro”, the CC50 is more than 25 µM. Besides, in data set [1], the negative-log EC50 (pEC50) was 7.25.

In turn, `C#C[C@@]1(O)[C@H](O)[C@@H](COP(=O)(N[C@@H](C)C(=O)OCOC(C)=O)Oc2ccccc2)O[C@H]1n1ccc(=O)[nH]c1=O` (single isomer, unassigned) [1.17 (peak 2)] gave a CC50 in “in vitro” of more than 25 µM. Moreover, in data set [1], the 50% effective concentration (EC50) worked out at 9.09 µM.

Molecule `C#C[C@@]1(O)[C@H](O)[C@@H](COP(=O)(NCCOC(=O)c2ccccc2)Oc2ccccc2)O[C@H]1n1ccc(=O)[nH]c1=O` (single isomer, unassigned) [1.18 (peak 2)] registered a CC50 in “in vitro” of more than 25 µM. Besides, in data set [1], the EC50 came to 0.089 µM.

`C#C[C@@]1(O)[C@H](O)[C@@H](COP(=O)(N[C@@H](CC(C)C)C(=O)OC(C)C)Oc2ccccc2)O[C@H]1n1ccc(=O)[nH]c1=O` (single isomer, unassigned) [1.23 (peak 2)]: the CC50 in “in vitro” is more than 25 µM. The negative-log EC50 (pEC50) in data set [1] was 6.52.

For the molecule `C#C[C@@]1(O)[C@H](O)[C@@H](COP(=O)(N[C@@H](CCC)C(=O)OC(C)C)Oc2ccccc2)O[C@H]1n1ccc(=O)[nH]c1=O` (single isomer, unassigned) [1.24 (peak 2)], the CC50 in “in vitro” is more than 25 µM. For the same molecule, in data set [1], the pEC50 was 7.21.

`C#C[C@@]1(O)[C@H](O)[C@@H](COP(=O)(N[C@@H](C)C(=O)OC(C)C)Oc2ccccc2)O[C@H]1n1ccc(=O)[nH]c1=O` (single isomer, unassigned) [1.25 (peak 1)]: the CC50 in “in vitro” is more than 25 µM. Further, the 50% effective concentration (EC50) in data set [1] was 0.358 µM.

`C#C[C@@]1(O)[C@H](O)[C@@H](COP(=O)(N[C@@H](C)C(=O)OC(C)C)Oc2ccccc2)O[C@H]1n1ccc(OC)nc1=O` (single isomer, unassigned) [1.28 (peak 2)] yielded a CC50 in “in vitro” of more than 25 µM. The 50% effective concentration (EC50) in data set [1] was more than 100 µM.

As to `C#C[C@@]1(O)[C@H](O)[C@@H](COP(=O)(N[C@@H](C)C(=O)OC(C)C)Oc2ccccc2)O[C@H]1n1ccc(N)nc1=O` (single isomer, unassigned) [1.30 (peak 2)], the CC50 in “in vitro” was more than 25 µM. Besides, the EC50 in data set [1] came out at 54.3 µM.

In turn, `C#C[C@@]1(O)[C@H](O)[C@@H](COP(=O)(N[C@@H](C)C(=O)OC2CCCC2)Oc2ccccc2)O[C@H]1n1ccc(=O)[nH]c1=O` (single isomer, unassigned) [1.31 (peak 2)] gave a CC50 in the data set “in vitro” of more than 25 µM. Moreover, in data set [1], the pEC50 was 8.22.

(Values after patent US9814739B2, “2′-ethynyl nucleoside derivatives for treatment of viral infections” (priority 2012, dated 2017).)
